From patent publication US11986540B2, “Compositions including pafolacianine for the identification of malignant lesions” (ON TARGET LABORATORIES, LLC., priority 2022, dated 2024)
Where two headings read alike, the source gives them in different places.

Columns and labels:
ovarian cancer lesion = experiment: Randomized, multicenter, open-label study: detection of ovarian cancer lesions under fluorescent light; format: in vivo, human
Experimental: The safety and efficacy of the compositions disclosed herein was evaluated in a randomized, multicenter, open-label study. The study enrolled 178 women diagnosed with ovarian cancer or with high clinical suspicion of ovarian cancer scheduled to undergo primary surgical cytoreduction, interval debulking, or recurrent ovarian cancer surgery. One hundred and fifty women highly suspicious for or with confirmed ovarian cancer received a composition including pafolacianine (dosed at 0.025 mg/kg at least 1 hour before initiation of fluorescence imaging). Among them, 134 women with mean age 60 (range 33 to 81) years received both normal light imaging evaluation and fluorescence imaging evaluation (the Intent-to-Image set).
The study assessed the proportion of patients with at least one evaluable ovarian cancer lesion confirmed by central pathology that was detected with compositions including pafolacianine under fluorescent light but not under normal light or palpation and not otherwise identified for resection prior to surgery. The detection proportion was estimated in women who underwent both normal light and fluorescent light (Intent-to-Image Set), see Table 1.

[1] = Repeat once-weekly IV dose toxicokinetics in dogs; format: in vivo; conditions: for half-life / AUC(0-inf) / AUC(0-t) / C0 / clearance / Vd: dog, in vivo; for Vd: read-out: Vss
Experimental: Overall, drug concentrations increased with ascending dose, noting that the mean profiles at the two highest dose levels were overlapping. Systemic exposure (AUClast) to pafolacianine was approximately dose-proportional over the range of doses administered (0.9 to 13.9 mg/kg) and within the observed variability (Table 5). […] On both Day 0 and Day 13, CL was slow (relative to hepatic blood flow) and Vss was moderate. Mean T1/2 ranged from approximately 13 to 18 hours.

[2] = Plasma protein binding, equilibrium dialysis, human plasma; format: in vitro ADME; conditions: human, plasma
Experimental: (§1) The plasma protein binding of pafolacianine was studied in vitro in fresh human, Sprague Dawley rat, and Beagle dog plasma using equilibrium dialysis. Pafolacianine was introduced into plasma samples, in duplicate, resulting in a final concentration of 5 μM. The mean (±SD) percentage of plasma protein bound pafolacianine was 99.1±0.1%, 98.6±0.1%, and 93.7±1.5% for rat, dog and human, respectively. Pafolacianine was highly bound to plasma protein in all species examined.

plasma protein = experiment: as above; format: in vitro ADME; conditions: human plasma, 5 μM
Experimental: as §1

[3] = Partitioning into red blood cells; format: in vitro ADME
[4] = Embryo-fetal development study in rats; format: in vivo
Experimental: (§2) Pafolacianine was intravenously administered at doses of, during the period of organogenesis namely, 0.015, 0.15, and 1.5 mg/kg/day from gestational day (GD) 6 to GD17 in rats (human equivalent doses (HEDs) of 0.002, 0.024 and 0.242 mg/kg/day) and 0.3, 1, and 3 mg/kg/day from GD7 to GD20 in rabbits (HEDs of 0.097, 0.323 and 0.968 mg/kg/day). […] No-Observed-Adverse-Effect-Levels were 1.5 mg/kg/day in rats and 3 mg/kg/day in rabbits.

[5] = Embryo-fetal development study in rabbits; format: in vivo
Experimental: as §2

[6] = female, iv, 0.9 mg/kg, dogs F, 0.9 mg/kg once-weekly IV, Day 0
[7] = female, iv, 0.9 mg/kg, dogs F, 0.9 mg/kg once-weekly IV, Day 13
[8] = female, iv, 9.3 mg/kg, dogs F, 9.3 mg/kg once-weekly IV, Day 0
[9] = female, iv, 9.3 mg/kg, dogs F, 9.3 mg/kg once-weekly IV, Day 13
[10] = female, iv, 13.9 mg/kg, dogs F, 13.9 mg/kg once-weekly IV, Day 0
[11] = female, iv, 13.9 mg/kg, dogs F, 13.9 mg/kg once-weekly IV, Day 13
[12] = male, iv, 0.9 mg/kg, dogs M, 0.9 mg/kg once-weekly IV, Day 0
[13] = male, iv, 0.9 mg/kg, dogs M, 0.9 mg/kg once-weekly IV, Day 13
[14] = male, iv, 9.3 mg/kg, dogs M, 9.3 mg/kg once-weekly IV, Day 0
[15] = male, iv, 9.3 mg/kg, dogs M, 9.3 mg/kg once-weekly IV, Day 13
[16] = male, iv, 13.9 mg/kg, dogs M, 13.9 mg/kg once-weekly IV, Day 0
[17] = male, iv, 13.9 mg/kg, dogs M, 13.9 mg/kg once-weekly IV, Day 13

CC1(C)C(=CC=C2CCCC(C=CC3=[N+](CCCCS(=O)(=O)[O-])c4ccc(S(=O)(=O)O)cc4C3(C)C)=C2Oc2ccc(CC(NC(=O)c3ccc(NCc4cnc5nc(N)[nH]c(=O)c5n4)cc3)C(=O)O)cc2)N(CCCCS(=O)(=O)O)c2ccc(S(=O)(=O)O)cc21 (stereo not shown) [pafolacianine]
Patients with at least one confirmed ovarian cancer evaluable lesion, Proportion (%) (ovarian cancer lesion; detected under fluorescent light but not normal light or palpation, Intent-to-Image set N = 134, 0.025 mg/kg): 0.269 (26.9%)
Patient-level false positive rate (ovarian cancer lesion; near-infrared fluorescent light, ovarian cancer lesions confirmed by central pathology): 20.2%
half-life ([1]; both sexes, intravenous, dogs, all doses and days, read-out: Mean T1/2 range): 780 to 1080 min
DN AUClast ([1]; dogs F, 0.9 mg/kg once-weekly IV, Day 0): 9.34 (μg · h/ml) (mg/kg)
DN AUClast ([1]; dogs F, 0.9 mg/kg once-weekly IV, Day 13): 7.36 (μg · h/ml) (mg/kg)
DN AUClast ([1]; dogs F, 9.3 mg/kg once-weekly IV, Day 0): 5.46 (μg · h/ml) (mg/kg)
DN AUClast ([1]; dogs F, 9.3 mg/kg once-weekly IV, Day 13): 6.21 (μg · h/ml) (mg/kg)
DN AUClast ([1]; dogs F, 13.9 mg/kg once-weekly IV, Day 0): 5.74 (μg · h/ml) (mg/kg)
DN AUClast ([1]; dogs F, 13.9 mg/kg once-weekly IV, Day 13): 6.81 (μg · h/ml) (mg/kg)
DN AUClast ([1]; dogs M, 0.9 mg/kg once-weekly IV, Day 0): 5.27 (μg · h/ml) (mg/kg)
DN AUClast ([1]; dogs M, 0.9 mg/kg once-weekly IV, Day 13): 5.64 (μg · h/ml) (mg/kg)
DN AUClast ([1]; dogs M, 9.3 mg/kg once-weekly IV, Day 0): 6.24 (μg · h/ml) (mg/kg)
DN AUClast ([1]; dogs M, 9.3 mg/kg once-weekly IV, Day 13): 7.03 (μg · h/ml) (mg/kg)
DN AUClast ([1]; dogs M, 13.9 mg/kg once-weekly IV, Day 0): 5.65 (μg · h/ml) (mg/kg)
DN AUClast ([1]; dogs M, 13.9 mg/kg once-weekly IV, Day 13): 6.18 (μg · h/ml) (mg/kg)
accumulation or changes in TK after repeated dosing ([1]; dogs, once-weekly dosing for 3 weeks): no accumulation or changes in TK were evident
AUC(0-inf) [1, 6]: 10500 ng·h/mL
AUC(0-t) [1, 6]: 8400 ng·h/mL
C0 [1, 6]: 4.75 µg/mL
clearance [1, 6]: 1.59 mL/min/kg
half-life ([1]; female, iv, 0.9 mg/kg, dogs F, 0.9 mg/kg once-weekly IV, Day 0, read-out: T1/2 (converted)): 900 min
Vd [1, 6]: 1.47 L/kg
AUC(0-inf) [1, 7]: 8420 ng·h/mL
AUC(0-t) [1, 7]: 6630 ng·h/mL
C0 [1, 7]: 8.92 µg/mL
clearance [1, 7]: 1.8 mL/min/kg
half-life ([1]; female, iv, 0.9 mg/kg, dogs F, 0.9 mg/kg once-weekly IV, Day 13, read-out: T1/2 (converted)): 786 min
Vd [1, 7]: 1.49 L/kg
AUC(0-inf) [1, 8]: 69300 ng·h/mL
AUC(0-t) [1, 8]: 50800 ng·h/mL
C0 [1, 8]: 54.9 µg/mL
clearance [1, 8]: 2.35 mL/min/kg
half-life ([1]; female, iv, 9.3 mg/kg, dogs F, 9.3 mg/kg once-weekly IV, Day 0, read-out: T1/2 (converted)): 912 min
Vd [1, 8]: 2.38 L/kg
AUC(0-inf) [1, 9]: 76600 ng·h/mL
AUC(0-t) [1, 9]: 57700 ng·h/mL
C0 [1, 9]: 67.8 µg/mL
clearance [1, 9]: 2.11 mL/min/kg
half-life ([1]; female, iv, 9.3 mg/kg, dogs F, 9.3 mg/kg once-weekly IV, Day 13, read-out: T1/2 (converted)): 858 min
Vd [1, 9]: 1.94 L/kg
AUC(0-inf) [1, 10]: 109000 ng·h/mL
AUC(0-t) [1, 10]: 79800 ng·h/mL
C0 [1, 10]: 79.6 µg/mL
clearance [1, 10]: 2.15 mL/min/kg
half-life ([1]; female, iv, 13.9 mg/kg, dogs F, 13.9 mg/kg once-weekly IV, Day 0, read-out: T1/2 (converted)): 918 min
Vd [1, 10]: 2.2 L/kg
AUC(0-inf) [1, 11]: 129000 ng·h/mL
AUC(0-t) [1, 11]: 94700 ng·h/mL
C0 [1, 11]: 104 µg/mL
clearance [1, 11]: 1.81 mL/min/kg
half-life ([1]; female, iv, 13.9 mg/kg, dogs F, 13.9 mg/kg once-weekly IV, Day 13, read-out: T1/2 (converted)): 918 min
Vd [1, 11]: 1.83 L/kg
AUC(0-inf) [1, 12]: 6400 ng·h/mL
AUC(0-t) [1, 12]: 4740 ng·h/mL
C0 [1, 12]: 4.66 µg/mL
clearance [1, 12]: 2.39 mL/min/kg
half-life ([1]; male, iv, 0.9 mg/kg, dogs M, 0.9 mg/kg once-weekly IV, Day 0, read-out: T1/2 (converted)): 888 min
Vd [1, 12]: 2.31 L/kg
AUC(0-inf) [1, 13]: 7360 ng·h/mL
AUC(0-t) [1, 13]: 5070 ng·h/mL
C0 [1, 13]: 5.73 µg/mL
clearance [1, 13]: 2.09 mL/min/kg
half-life ([1]; male, iv, 0.9 mg/kg, dogs M, 0.9 mg/kg once-weekly IV, Day 13, read-out: T1/2 (converted)): 1060 min
Vd [1, 13]: 2.42 L/kg
AUC(0-inf) [1, 14]: 81200 ng·h/mL
AUC(0-t) [1, 14]: 58000 ng·h/mL
C0 [1, 14]: 62.1 µg/mL
clearance [1, 14]: 1.92 mL/min/kg
half-life ([1]; male, iv, 9.3 mg/kg, dogs M, 9.3 mg/kg once-weekly IV, Day 0, read-out: T1/2 (converted)): 984 min
Vd [1, 14]: 2.1 L/kg
AUC(0-inf) [1, 15]: 85100 ng·h/mL
AUC(0-t) [1, 15]: 65400 ng·h/mL
C0 [1, 15]: 72.6 µg/mL
clearance [1, 15]: 1.84 mL/min/kg
half-life ([1]; male, iv, 9.3 mg/kg, dogs M, 9.3 mg/kg once-weekly IV, Day 13, read-out: T1/2 (converted)): 798 min
Vd [1, 15]: 1.6 L/kg
AUC(0-inf) [1, 16]: 110000 ng·h/mL
AUC(0-t) [1, 16]: 78500 ng·h/mL
C0 [1, 16]: 81.8 µg/mL
clearance [1, 16]: 2.13 mL/min/kg
half-life ([1]; male, iv, 13.9 mg/kg, dogs M, 13.9 mg/kg once-weekly IV, Day 0, read-out: T1/2 (converted)): 972 min
Vd [1, 16]: 2.35 L/kg
AUC(0-inf) [1, 17]: 117000 ng·h/mL
AUC(0-t) [1, 17]: 85900 ng·h/mL
C0 [1, 17]: 108 µg/mL
clearance [1, 17]: 2 mL/min/kg
half-life ([1]; male, iv, 13.9 mg/kg, dogs M, 13.9 mg/kg once-weekly IV, Day 13, read-out: T1/2 (converted)): 900 min
Vd [1, 17]: 2.02 L/kg
fraction unbound at 5 μM [2]: 0.063
mean (±SD) percentage of plasma protein bound (plasma protein): 93.7±1.5%
partitioning into red blood cells [3]: No notable partitioning
Estimated systemic exposure relative to human exposure at 0.025 mg/kg (AUC comparison) ([4]; rat): 158 times
maternal toxicity and embryo-fetal development toxicity ([4]; rats, 0.015, 0.15, 1.5 mg/kg/day IV): No significant drug-related maternal toxicity and embryo-fetal development toxicity
No-Observed-Adverse-Effect-Level ([4]; rats, IV, GD6 to GD17): 1.5 mg/kg/day
Estimated systemic exposure relative to human exposure at 0.025 mg/kg (AUC comparison) ([5]; rabbit): 570 times
maternal toxicity and embryo-fetal development toxicity ([5]; rabbits, 0.3, 1, 3 mg/kg/day IV): No significant drug-related maternal toxicity and embryo-fetal development toxicity
No-Observed-Adverse-Effect-Level ([5]; rabbits, IV, GD7 to GD20): 3 mg/kg/day
